Reference: ChEMBL document CHEMBL1201862, “PubChem BioAssay data set” (2004)
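Values below derive from 48-hour exposures of cells grown in 96-well plates, with endpoints linearly interpolated between the two concentrations bracketing the appropriate inhibition level. The concentration for 50% growth inhibition is given as GI50.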 Activity calls are given as the source filed them. Cut-off read from the data, not from the text of the source: active = GI50 up to about 1.1 µM and inactive = higher.

Legend:
Experiment in all cases: DTP human tumour cell line panel, 48 h
[1] = tested on: A549
[2] = tested on: OVCAR-4
[3] = tested on: CAKI-1
[4] = tested on: SK-MEL-5
[5] = tested on: 786-0
[6] = tested on: EKVX
[7] = tested on: DLD-1
[8] = tested on: SN12C
[9] = tested on: M19-MEL
[10] = tested on: RPMI-8226
[11] = tested on: DMS-114
[12] = tested on: UACC-62
[13] = tested on: OVCAR-5
[14] = tested on: SK-MEL-28
[15] = tested on: COLO 205
[16] = tested on: MOLT-4
[17] = tested on: HOP-92
[18] = tested on: KM12
[19] = tested on: TK-10
[20] = tested on: HCT-15
[21] = tested on: RXF 631
[22] = tested on: HCT-116
[23] = tested on: UO-31
[24] = tested on: SK-MEL-2
[25] = tested on: NCI-H226
[26] = tested on: SNB-75
[27] = tested on: KM-20L2
[28] = tested on: SW-620
[29] = tested on: NCI-H23
[30] = tested on: DMS-273
[31] = tested on: SF-295
[32] = tested on: Malme-3M
[33] = tested on: SF-539
[34] = tested on: K562
[35] = tested on: IGROV-1
[36] = tested on: SK-OV-3
[37] = tested on: SNB-78
[38] = tested on: HT-29
[39] = tested on: LOX IMVI
[40] = tested on: XF498
[41] = tested on: OVCAR-8
[42] = tested on: SF-268
[43] = tested on: NCI-H522
[44] = tested on: SNB-19
[45] = tested on: OVCAR-3
[46] = tested on: NCI-H460
[47] = tested on: HOP-62
[48] = tested on: LXFL 529
[49] = tested on: ACHN
[50] = tested on: U-251
[51] = tested on: HCC 2998
[52] = tested on: CCRF-CEM
[53] = tested on: M14
[54] = tested on: SR
[55] = tested on: A498
[56] = tested on: HOP-18
[57] = tested on: UACC-257
[58] = tested on: HL-60
[59] = tested on: MDA-MB-231
[60] = tested on: NCI/ADR-RES
[61] = tested on: Hs-578T
[62] = tested on: T47D
[63] = tested on: BT-549
[64] = tested on: MDA-MB-435
[65] = tested on: MDA-N
[66] = tested on: DU-145
[67] = tested on: PC-3
[68] = tested on: MCF7
[69] = tested on: RXF 393

C=C1C(=O)O[C@@H]2C[C@]3(C)[C@@H](C[C@H]12)[C@](C)(O)CC[C@@H]3O
GI50 [1]: > 100 µM (inactive) | GI50 [2]: > 100 µM (inactive) | GI50 [3]: 66.1 µM (inactive) | GI50 [4]: 91.8 µM (inactive) | GI50 [5]: 39.4 µM (inactive) | GI50 [6]: > 100 µM (inactive) | GI50 [7]: 41 µM (inactive) | GI50 [8]: 59.4 µM (inactive) | GI50 [9]: 43.9 µM (inactive) | GI50 [10]: 52.7 µM (inactive) | GI50 [11]: 39.2 µM (inactive) | GI50 [12]: 32.5 µM (inactive) | GI50 [13]: > 100 µM (inactive) | GI50 [14]: 65.2 µM (inactive) | GI50 [15]: 38.8 µM (inactive) | GI50 [16]: 57.1 µM (inactive) | GI50 [17]: 81.3 µM (inactive) | GI50 [18]: 37.8 µM (inactive) | GI50 [19]: 26.9 µM (inactive) | GI50 [20]: 52.4 µM | GI50 [21]: 87.5 µM (inactive) | GI50 [22]: 36 µM (inactive) | GI50 [23]: > 100 µM (inactive) | GI50 [24]: 69.2 µM (inactive) | GI50 [25]: 48.3 µM (inactive) | GI50 [26]: 53.3 µM (inactive) | GI50 [27]: 38.9 µM (inactive) | GI50 [28]: 45.9 µM (inactive) | GI50 [29]: 30.1 µM (inactive) | GI50 [30]: 52.8 µM (inactive) | GI50 [31]: > 100 µM (inactive) | GI50 [32]: 71.3 µM (inactive) | GI50 [33]: 34 µM (inactive) | GI50 [34]: 33.4 µM (inactive) | GI50 [35]: > 100 µM (inactive) | GI50 [36]: > 100 µM (inactive) | GI50 [37]: 47.8 µM (inactive) | GI50 [38]: 33.3 µM (inactive) | GI50 [39]: 55.7 µM (inactive) | GI50 [40]: 36.5 µM (inactive) | GI50 [41]: 36.6 µM (inactive) | GI50 [42]: 42.4 µM (inactive) | GI50 [43]: 34.8 µM (inactive) | GI50 [44]: > 100 µM (inactive) | GI50 [45]: 37.9 µM (inactive) | GI50 [46]: 23.7 µM (inactive) | GI50 [47]: > 100 µM (inactive) | GI50 [48]: 44 µM (inactive) | GI50 [49]: > 100 µM (inactive) | GI50 [50]: > 100 µM (inactive) | GI50 [51]: > 100 µM (inactive) | GI50 [52]: 33.5 µM (inactive) | GI50 [53]: 31.5 µM (inactive)

COc1ccc(S(=O)(=O)N/N=C(\C)CN2C(=O)c3ccccc3C2=O)cc1
GI50 [1]: > 100 µM (inactive) | GI50 [2]: > 100 µM (inactive) | GI50 [3]: > 100 µM (inactive) | GI50 [4]: > 100 µM (inactive) | GI50 [5]: > 100 µM (inactive) | GI50 [6]: > 100 µM (inactive) | GI50 [7]: > 100 µM (inactive) | GI50 [8]: > 100 µM (inactive) | GI50 [9]: > 100 µM (inactive) | GI50 [10]: > 100 µM (inactive) | GI50 [11]: > 100 µM (inactive) | GI50 [12]: > 100 µM (inactive) | GI50 [13]: > 100 µM (inactive) | GI50 [14]: > 100 µM (inactive) | GI50 [15]: > 100 µM (inactive) | GI50 [16]: > 100 µM (inactive) | GI50 [18]: > 100 µM (inactive) | GI50 [19]: > 100 µM (inactive) | GI50 [20]: > 100 µM | GI50 [21]: > 100 µM (inactive) | GI50 [22]: > 100 µM (inactive) | GI50 [23]: > 100 µM (inactive) | GI50 [24]: > 100 µM (inactive) | GI50 [25]: > 100 µM (inactive) | GI50 [54]: > 100 µM (inactive) | GI50 [26]: > 100 µM (inactive) | GI50 [27]: > 100 µM (inactive) | GI50 [55]: > 100 µM (inactive) | GI50 [28]: > 100 µM (inactive) | GI50 [29]: > 100 µM (inactive) | GI50 [30]: > 100 µM (inactive) | GI50 [31]: > 100 µM (inactive) | GI50 [32]: > 100 µM (inactive) | GI50 [33]: > 100 µM (inactive) | GI50 [34]: > 100 µM (inactive) | GI50 [35]: > 100 µM (inactive) | GI50 [36]: > 100 µM (inactive) | GI50 [37]: > 100 µM (inactive) | GI50 [38]: > 100 µM (inactive) | GI50 [56]: > 100 µM (inactive) | GI50 [57]: > 100 µM (inactive) | GI50 [39]: > 100 µM (inactive) | GI50 [41]: > 100 µM (inactive) | GI50 [42]: > 100 µM (inactive) | GI50 [43]: > 100 µM (inactive) | GI50 [44]: > 100 µM (inactive) | GI50 [45]: > 100 µM (inactive) | GI50 [58]: > 100 µM (inactive) | GI50 [46]: > 100 µM (inactive) | GI50 [47]: > 100 µM (inactive) | GI50 [48]: > 100 µM (inactive) | GI50 [49]: > 100 µM (inactive) | GI50 [50]: > 100 µM (inactive) | GI50 [51]: > 100 µM (inactive) | GI50 [52]: > 100 µM (inactive) | GI50 [53]: > 100 µM (inactive)

CC(=O)NC(CCCCN(Cc1ccccc1)C(=O)N(CCCl)N=O)C(=O)NCc1ccccc1 (configuration not stated)
GI50 [1]: 22.1 µM (inactive) | GI50 [2]: 68.1 µM (inactive) | GI50 [3]: > 26.8 µM (inactive) | GI50 [4]: > 100 µM (inactive) | GI50 [5]: 0.895 µM (active) | GI50 [6]: 61.9 µM (inactive) | GI50 [7]: > 47.9 µM (inactive) | GI50 [8]: 34.8 µM (inactive) | GI50 [9]: > 67.3 µM (inactive) | GI50 [10]: 41.7 µM (inactive) | GI50 [11]: > 100 µM (inactive) | GI50 [12]: 3.15 µM (inactive) | GI50 [59]: 21.9 µM (inactive) | GI50 [13]: > 67.6 µM (inactive) | GI50 [14]: 45.7 µM (inactive) | GI50 [60]: 14.5 µM (inactive) | GI50 [15]: 42.2 µM (inactive) | GI50 [16]: 14.3 µM (inactive) | GI50 [61]: 22.2 µM (inactive) | GI50 [17]: 33 µM (inactive) | GI50 [62]: 14.5 µM (inactive) | GI50 [18]: 38.5 µM (inactive) | GI50 [19]: 44.8 µM (inactive) | GI50 [20]: > 60.8 µM | GI50 [22]: > 49.5 µM (inactive) | GI50 [63]: 21.3 µM (inactive) | GI50 [23]: 34.4 µM (inactive) | GI50 [64]: 35.1 µM (inactive) | GI50 [65]: 14.9 µM (inactive) | GI50 [24]: 44.8 µM (inactive) | GI50 [25]: 43.1 µM (inactive) | GI50 [66]: 25.7 µM (inactive) | GI50 [54]: 1.1 µM (active) | GI50 [26]: 19.5 µM (inactive) | GI50 [27]: > 52.8 µM (inactive) | GI50 [55]: > 100 µM (inactive) | GI50 [28]: 18.5 µM (inactive) | GI50 [29]: 27.7 µM (inactive) | GI50 [30]: > 35.8 µM (inactive) | GI50 [31]: 7.21 µM (inactive) | GI50 [32]: 37.5 µM (inactive) | GI50 [33]: 3.38 µM (inactive) | GI50 [34]: 36.6 µM (inactive) | GI50 [35]: 39.7 µM (inactive) | GI50 [36]: > 54.3 µM (inactive) | GI50 [37]: > 100 µM (inactive) | GI50 [38]: 42 µM (inactive) | GI50 [56]: 25.9 µM (inactive) | GI50 [57]: 24.3 µM (inactive) | GI50 [39]: 22.2 µM (inactive) | GI50 [40]: > 34.4 µM (inactive) | GI50 [41]: 17.4 µM (inactive) | GI50 [42]: 3.48 µM (inactive) | GI50 [43]: 39 µM (inactive) | GI50 [44]: 16.7 µM (inactive) | GI50 [45]: 60.8 µM (inactive) | GI50 [58]: 12.4 µM (inactive) | GI50 [46]: 2.22 µM (inactive) | GI50 [47]: 17 µM (inactive) | GI50 [48]: > 100 µM (inactive) | GI50 [67]: > 35.5 µM (inactive) | GI50 [68]: 16.3 µM (inactive) | GI50 [49]: 14.3 µM (inactive) | GI50 [69]: 14.7 µM (inactive) | GI50 [50]: 11.6 µM (inactive) | GI50 [51]: > 100 µM (inactive) | GI50 [52]: 17.8 µM (inactive) | GI50 [53]: 41.7 µM (inactive)
